The results in this text go back to patent publication US8410144B2, “Substituted indolo-pyridinone compounds” (ArQule, Inc., priority 2009, dated 2013).

One may read the melting point as the temperature, or range, at which the solid turns liquid.

For one data set, the system named is KATO III. Nature of the data set: MTS assay, KATO III cells. The format is cell-based. Conditions: Homo sapiens, 72 hours, read-out: KATO III, MTS cell kill % inhibition. A digest of the protocol: (§1)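 First, seed 3000 cells per well in low-serum (1% FBS) DMEM and culture 18 h. Next, add compounds prepared at 300× in DMSO and diluted 1:40 in DMEM; incubate 72 h. Finally, add MTS/PMS for 4 h and measure absorbance at 492 nm.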
Background: Formazan colour is commonly taken as a measure of viable cells.

The test system of a further data set is DLD-1. As to the kind of experiment: MTS assay, DLD-1 cells. It counts as cell-based. Conditions: Homo sapiens, 72 hours, read-out: DLD-1, MTS cell kill % inhibition. A digest of the protocol:
as §1

Another data set addresses IGF-1R (Homo sapiens, UniProt P08069). Nature of the data set: IGFR1 activity assay (ELISA). The format is biochemical. As to conditions: read-out: IGF-1R, PCT INH (30 μM), ELISA. The gist of the method:
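IGF1R (0.33 ng/μL final) phosphorylating Pyk-2 (0.05 ng/μL final) in buffer with 12.5 μM ATP, 10 mM MgCl2, 1 h room temperature. Product captured on streptavidin plates, detected with anti-phosphotyrosine and alkaline phosphatase secondary antibody, Attophos fluorescent readout.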
Background: An ELISA detects its analyte on a solid surface through an enzyme-linked reagent.

A further data set relates to MDA-MB-231. Nature of the data set: MTS assay, MDA-MB-231 cells. The format is cell-based. As to conditions: Homo sapiens, 72 hours, read-out: MDA-MB-231, MTS cell kill % inhibition. The gist of the method: as §1
A further data set has as its system NCI-H1299. Nature of the data set: MTS assay, NCI-H1299 cells. It counts as cell-based. As to conditions: Homo sapiens, 72 hours, read-out: NCI-H1299, MTS cell kill % inhibition. A digest of the protocol: as §1

Chain of IGF-1R (P08069 31-1367): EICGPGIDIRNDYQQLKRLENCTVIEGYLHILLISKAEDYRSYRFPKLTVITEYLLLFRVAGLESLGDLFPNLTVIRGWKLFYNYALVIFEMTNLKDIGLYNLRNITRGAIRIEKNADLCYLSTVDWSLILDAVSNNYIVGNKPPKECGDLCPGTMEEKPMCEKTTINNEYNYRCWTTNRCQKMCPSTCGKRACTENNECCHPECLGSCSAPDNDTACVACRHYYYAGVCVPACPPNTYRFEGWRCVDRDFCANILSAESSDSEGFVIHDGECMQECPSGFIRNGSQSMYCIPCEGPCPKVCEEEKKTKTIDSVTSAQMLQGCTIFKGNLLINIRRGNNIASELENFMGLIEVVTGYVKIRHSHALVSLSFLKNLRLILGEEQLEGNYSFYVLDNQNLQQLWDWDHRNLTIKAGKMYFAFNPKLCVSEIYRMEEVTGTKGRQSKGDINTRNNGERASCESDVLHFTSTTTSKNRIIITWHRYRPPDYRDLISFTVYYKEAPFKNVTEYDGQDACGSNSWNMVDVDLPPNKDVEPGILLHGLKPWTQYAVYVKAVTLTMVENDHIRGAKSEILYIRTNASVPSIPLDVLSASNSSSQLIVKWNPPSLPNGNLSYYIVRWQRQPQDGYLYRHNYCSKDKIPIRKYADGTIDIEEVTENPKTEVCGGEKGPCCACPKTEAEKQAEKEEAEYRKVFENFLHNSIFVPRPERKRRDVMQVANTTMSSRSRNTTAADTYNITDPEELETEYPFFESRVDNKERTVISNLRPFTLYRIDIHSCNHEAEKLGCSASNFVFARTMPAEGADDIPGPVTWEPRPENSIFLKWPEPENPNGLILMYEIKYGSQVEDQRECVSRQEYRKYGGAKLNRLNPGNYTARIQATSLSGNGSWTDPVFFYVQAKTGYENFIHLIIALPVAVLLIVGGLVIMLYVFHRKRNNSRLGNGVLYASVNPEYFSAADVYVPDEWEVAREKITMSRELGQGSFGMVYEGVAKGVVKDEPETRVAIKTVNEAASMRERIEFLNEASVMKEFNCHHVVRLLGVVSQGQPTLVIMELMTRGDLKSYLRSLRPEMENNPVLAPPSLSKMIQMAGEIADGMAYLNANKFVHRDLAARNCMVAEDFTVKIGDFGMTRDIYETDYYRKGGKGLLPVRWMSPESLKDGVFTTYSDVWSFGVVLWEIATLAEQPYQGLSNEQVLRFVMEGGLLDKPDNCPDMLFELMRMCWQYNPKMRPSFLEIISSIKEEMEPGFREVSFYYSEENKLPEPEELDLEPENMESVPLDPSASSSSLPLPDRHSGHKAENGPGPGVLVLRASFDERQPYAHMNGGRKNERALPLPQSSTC

`CCOc1ccc(-c2c(-c3ccc[nH]c3=O)[nH]c3ccc(C(=O)NCCCN4CCOCC4)cc23)cc1` [Compound 79, 3-(4-ethoxyphenyl)-N-(3-morpholin-4-ylpropyl)-2-(2-oxo-1,2-dihydropyridin-3-yl)-1H-indole-5-carboxamide] gave a melting point of 143 to 145 °C. Also, in the data set with KATO III, the inhibition at 10 µM fell in the range of 80 to 100%. Also, in the data set with DLD-1, the inhibition at 10 µM was in the range of 80 to 100%. Moreover, the inhibition at 30 µM at IGF-1R was in the range of 80 to 100%. In the data set on MDA-MB-231, the inhibition at 10 µM was in the range of 80 to 100%. Also, the inhibition at 10 µM in the data set with NCI-H1299 was in the range of 80 to 100%.

Take `Cc1ccccc1N(C)C(=O)c1ccc2[nH]c(-c3ccc[nH]c3=O)c(-c3ccccc3)c2c1` [Compound 16, N-methyl-N-(2-methylphenyl)-2-(2-oxo-1,2-dihydropyridin-3-yl)-3-phenyl-1H-indole-5-carboxamide]: the melting point was in the range of 216 to 220 °C. Further, the inhibition at 10 µM in the data set with KATO III was in the range of 80 to 100%. The inhibition at 10 µM with DLD-1 was 50 to 79%. In addition, the inhibition at 30 µM on IGF-1R lay within 80 to 100%. In addition, the inhibition at 10 µM in the data set on MDA-MB-231 was less than 50%. Moreover, the inhibition at 10 µM in the data set with NCI-H1299 lay within 50 to 79%.

Consider `CCc1ccc(-c2c(-c3ccc[nH]c3=O)[nH]c3ccc(C(=O)NCCCN4CCOCC4)cc23)cc1` [Compound 65, 3-(4-ethylphenyl)-N-(3-morpholin-4-ylpropyl)-2-(2-oxo-1,2-dihydropyridin-3-yl)-1H-indole-5-carboxamide], for which the melting point was 143 to 145 °C. In addition, in the data set with KATO III, the inhibition at 10 µM lay in the range of 80 to 100%. The inhibition at 10 µM with DLD-1 lay within 80 to 100%. Also, the inhibition at 30 µM on IGF-1R fell in the range of 80 to 100%. In the data set on MDA-MB-231, the inhibition at 10 µM lay in the range of 50 to 79%. The inhibition at 10 µM in the data set on NCI-H1299 is 80 to 100%.

As to `O=C(c1ccc2[nH]c(-c3ccc[nH]c3=O)c(-c3ccc(-c4ccccc4)cc3)c2c1)N1CCCCC1` [Compound 38, 3-[3-biphenyl-4-yl-5-(piperidin-1-ylcarbonyl)-1H-indol-2-yl]pyridin-2(1H)-one], the melting point lay within 170 to 182 °C. In addition, the inhibition at 10 µM in the data set on KATO III lay within 80 to 100%. Further, the inhibition at 10 µM with DLD-1 fell in the range of 80 to 100%. For the same compound, the inhibition at 30 µM at IGF-1R was less than 50%. Also, the inhibition at 10 µM with MDA-MB-231 is 80 to 100%. The inhibition at 10 µM in the data set with NCI-H1299 lay within 80 to 100%.

For the compound `O=C(NCCCN1CCOCC1)c1ccc2[nH]c(-c3ccc[nH]c3=O)c(-c3ccccc3)c2c1` [Compound 1, N-(3-morpholin-4-ylpropyl)-2-(2-oxo-1,2-dihydropyridin-3-yl)-3-phenyl-1H-indole-5-carboxamide], the melting point lay in the range of 238 to 244 °C. Further, the inhibition at 10 µM in the data set on KATO III was 80 to 100%. Moreover, the inhibition at 10 µM in the data set with DLD-1 is 80 to 100%. Besides, the inhibition at 30 µM on IGF-1R was in the range of 80 to 100%. In the data set on MDA-MB-231, the inhibition at 10 µM lay in the range of 80 to 100%. The inhibition at 10 µM in the data set with NCI-H1299 fell in the range of 80 to 100%.

With `CN(C)CCCNCc1ccc2[nH]c(-c3ccc[nH]c3=O)c(-c3ccc(-c4ccccc4)cc3)c2c1` [Compound 54, 3-[3-biphenyl-4-yl-5-({[3-(dimethylamino)propyl]amino}methyl)-1H-indol-2-yl]pyridin-2(1H)-one], the melting point lay within 160 to 166 °C. For the same compound, the inhibition at 10 µM with KATO III is less than 50%. Moreover, in the data set on DLD-1, the inhibition at 10 µM fell in the range of 50 to 79%. Also, the inhibition at 30 µM at IGF-1R is less than 50%. The inhibition at 10 µM with MDA-MB-231 fell in the range of 50 to 79%. The inhibition at 10 µM in the data set with NCI-H1299 was less than 50%.
